Measured values from patent publication US6399633B1, “Use of 4-H-1-benzopryan-4-one derivatives as inhibitors of smooth muscle cell proliferation” (priority 1999, dated 2002).
Entries after “also recorded” stand apart in the source; their conditions may differ. Read-outs that look alike come from different tables or passages of the source. Values belong to the compound of their own block, whether it stands above or below them.

How the values were obtained:
[1] = test system: Erk1 (p44 MAP kinase) and Erk2 (p42 MAP kinase); experiment: Western blot of phosphorylated Erk1/Erk2 in HASMC; assay type: cell-based, human; details: growth factors 30 min
Protocol: (§1) Western blot analysis—Quiescent HASMC were treated in the presence or absence of growth factors and/or flavopiridol as indicated. Western blot analysis was performed as previously described^18. The primary antibodies were: a polyclonal anti-human cyclin D1 antibody (M-20, Santa Cruz), a monoclonal anti-human proliferating cell nuclear antigen (PCNA) antibody (PC10, Sigma), a phosphorylation-specific p44/42 (Erk1/Erk2) MAP kinase monoclonal antibody (New England Biolabs), and a monoclonal anti-Rb antibody (G3-245, Pharmigen), which recognizes the phosphorylated (pRb) and highly phosphorylated (ppRb) Rb species. For immunoblotting studies, experiments were repeated at least three times.

[2] = test system: Erk1 (p44 MAP kinase) and Erk2 (p42 MAP kinase); experiment: In-gel kinase assay (myelin basic protein) in HASMC; assay type: cell-based, human; details: growth factors 30 min
Protocol: In-gel kinase assay—Quiescent HASMC were treated with growth factors for 30 min and total cell lysates were prepared as described for Western blotting. In some experiments, HASMC were pretreated for 60 min with 30 μmol/L PD98059, flavopiridol, or vehicle. Equal amounts of proteins (50 μg/lane) were resolved on a polyacrylamide gel that was copolymerized with 350 μg/ml myelin basic protein. The gel was treated with [γ-^32P]ATP and autoradiography was performed as described^19.

[3] = test system: Human aortic smooth muscle cells (HASMC); experiment: Cell proliferation ELISA (BrdU incorporation); assay type: cell-based; details: flavopiridol 75 nmol/L; bFGF- and thrombin-induced
Protocol: Cell culture—Human aortic smooth muscle cells (HASMC) were obtained from Clonetics and were cultured as previously described^18. Cells were used at passages 5-9. Prior to performing experiments, cells were growth-arrested at 80% confluence for 48 h with medium containing 0.2% fetal bovine serum. Cell proliferation ELISA—Cell proliferation was measured by ELISA (Amersham Life Science). HASMC were grown in gelatin-coated 96-well plates and made quiescent. Cells were treated with 10 ng/ml bFGF, 2 U/ml thrombin, or vehicle for 24 h. Flavopiridol (75 nmol/L) was administered 1 h prior to growth factor treatment. 5-Bromo-2′-deoxyuridine (BrdU) was added to a final concentration of 10 μmol/L during the last 2 h of treatment. BrdU incorporation was measured as described^19. Results are expressed as mean±SEM for 12 samples per condition from two independent experiments.

[4] = test system: Human aortic smooth muscle cells (HASMC); experiment: Cell counts of growth-arrested HASMC; assay type: cell-based; details: bFGF 10 ng/ml, flavopiridol 75 nmol/L, three days; bFGF alone 3-fold increase
Protocol: Cell culture—Human aortic smooth muscle cells (HASMC) were obtained from Clonetics and were cultured as previously described^18. Cells were used at passages 5-9. Prior to performing experiments, cells were growth-arrested at 80% confluence for 48 h with medium containing 0.2% fetal bovine serum. Cell counts—Growth-arrested HASMC grown to 50% confluence in 6-well plates were treated with or without flavopiridol (75 nmol/L) or bFGF (10 ng/ml). At intervals after treatment, cells were trypsinized and cell numbers determined using a hemocytometer.

Cdc2 and Cdk2 = experiment: Cdk activity (histone H1 kinase assay) in HASMC lysates; assay type: cell-based, human; details: flavopiridol 75 nmol/L pretreatment, 24 h
Protocol: Cdk activity—Quiescent HASMC were treated with agonists and inhibitors for 24 h and total cell lysates were prepared as described for Western blotting. The kinase assay was performed with a histone H1 kinase assay kit (Upstate Biotechnology) following the manufacturer's instructions. In brief, 10 μl of peptide inhibitors for protein kinase C (2 μmol/L) and protein kinase A (2 μmol/L), 100 μg cell lysate, 10 μl assay buffer and 10 μl of a mixture containing 75 μmol/L magnesium chloride, 500 μmol/L ATP and 1 μCi/ml [γ-^32P]ATP were mixed in a microcentrifuge tube. After incubation at 30° C. for 10 min, aliquots were pipetted onto phosphocellulose papers. The papers were washed in 0.75% phosphoric acid, followed by measurement of cpm in a scintillation counter (Beckman). Results are expressed as the mean±SEM for three samples and are representative of three independent experiments.

cyclin D1 = experiment: Western blot of cyclin D1 in HASMC; assay type: cell-based, human; details: flavopiridol 75 nmol/L pretreatment, 24 h
Protocol: as §1

PCNA = experiment: Western blot of PCNA in HASMC; assay type: cell-based, human; details: flavopiridol 75 nmol/L pretreatment, 24 h
Protocol: as §1

Rb = experiment: Western blot of Rb phosphorylation in HASMC; assay type: cell-based, human; details: flavopiridol 75 nmol/L, 24 h
Protocol: as §1

[5] = test system: Human aortic smooth muscle cells (HASMC); experiment: Trypan-blue exclusion viability; assay type: cell-based; details: flavopiridol 75 nmol/L, quiescent HASMC
Protocol: Trypan-blue exclusion—HASMC were grown in 5-cm dishes at low confluence and growth-arrested as described. Cells were treated with flavopiridol (75 nmol/L) or tumor necrosis factor-[…] (TNF-[…]; 50 ng/ml) for the indicated times. Following the removal of the medium, 0.4% trypan blue in phosphate-buffered saline was added to the dishes. After 5 min, the cells in the dishes were counted under the microscope. Blue cells were counted as nonviable cells.

[6] = test system: rat carotid artery neointimal formation; details: for PCNA-positive nuclei in the neointima: 5 mg/kg orally
Protocol: Rat carotid injury model—Injury to the rat carotid artery was performed essentially as described^2. Adult male Sprague-Dawley rats (400-500 g, Zivic-Miller) were anesthetized with an intraperitoneal injection of ketamine ([…]) and xylazine (4 mg/kg). The left internal carotid was then cannulated with a 2F embolectomy catheter. The balloon was inflated with saline and withdrawn across the artery three times to produce a distending and denuding injury. The right carotid artery was uninjured and served as a control of injury for each animal. Immediately following recovery from anesthesia and for four additional days thereafter, rats were administered flavopiridol (5 mg/kg in water) or water by gavage in a blinded manner. […] At specified time points after carotid injury, rats were anesthetized as above and perfusion-fixed systemically with 4% paraformaldehyde in phosphate-buffered saline. Right and left carotid arteries were removed and distended by injection of 4% paraformaldehyde through the lumen, after which they were dehydrated and stored in 70% ethanol at 4° C. Immunohistochemistry was performed as previously described^18, using the monoclonal PCNA antibody and a polyclonal anti-human Cdk2 antibody (M2-G, Santa Cruz).
Image analysis—The extreme distal and proximal regions of each artery (approx. 500 μm) were removed. Ten intermediate cross-sections (8 μm each) taken 500 μm apart were analyzed from each artery. Slides were fixed and stained with hematoxylin and eosin as previously described^18. Using a Nikon Diaphot 300 microscope and a 4× objective, each cross-section was captured as a digital image using a Hamamatsu C5985 video camera and TCPro 2.41 (Coreco, Inc.). Medial and neointimal areas were determined using NIH Image software. Medial and neointimal boundaries were determined by one slide reviewer (A.M.) and verified in a blinded fashion by a second reviewer (C.P.). Lesion size was expressed as the neointima/media ratio. Results for each group were expressed as the mean±SEM.

[7] = doses below the toxic threshold, Phase I human studies; cited from earlier work
[8] = in vivo; cited from earlier work
neointimal formation = details: instilled into the carotid artery at the time of injury; cited from earlier work

thrombin- and bFGF-induced Erk1 and Erk2 activity (in-gel kinase) ([2]; PD98059 30 μmol/L pretreatment 60 min): inhibitable
Compound: COc1cccc(-c2cc(=O)c3ccccc3o2)c1N [PD98059, reference compound]
thrombin- and bFGF-induced phosphorylation of Erk1 and Erk2 ([1]; PD98059 30 μmol/L): blocked

Compound: CN1CC[C@H](c2c(O)cc(O)c3c(=O)cc(-c4ccccc4Cl)oc23)[C@H](O)C1 [flavopiridol, (−)-cis, -5,7-dihydroxy-2-(2-chlorophenyl)-8-[4-(3-hydroxy-1-methyl)piperidinyl]-4H-benzopyran-4-one]
inhibition of SMC proliferation [3]: near complete inhibition | bFGF-induced increase in cell number [4]: efficiently blocked | bFGF- and thrombin-induced increases in histone H1 kinase (cyclin-dependent kinase) activity (Cdc2 and Cdk2): totally blocked; also recorded: inhibited | bFGF- and thrombin-induced upregulation of cyclin D1 protein (cyclin D1): completely blocked | growth factor-induced increased expression of PCNA (PCNA): blocked | thrombin- and bFGF-induced hyperphosphorylation of Rb (Rb): inhibited; also recorded: blocked | thrombin- and bFGF-induced phosphorylation of Erk1 and Erk2 ([1]; flavopiridol 75 nmol/L): no effect | thrombin- and bFGF-induced Erk1 and Erk2 activity (in-gel kinase) ([2]; flavopiridol 75 nmol/L): no effect | HASMC viability (trypan blue exclusion) [5]: does not decrease HASMC viability | HASMC viability (trypan blue exclusion) ([5]; listed as Flavopiridol): no effect | Cdk2-positive cells in the neointima vs untreated rats ([6]; 7 and 14 days after injury, 5 mg/kg by gavage): much less common | reduction of neointimal area ([6]; 7 days after injury, 5 mg/kg by gavage): 35% | PCNA-positive nuclei in the neointima ([6]; 7 days after injury, untreated 31.1±7.2%): 11.8±1.5% | reduction of neointimal area ([6]; 14 days after injury, 5 mg/kg by gavage): 39% | PCNA-positive nuclei in the neointima ([6]; 14 days after injury): 10.4±2.0% | signs of toxicity related to drug administration ([6]; rat, in vivo, 5 mg/kg): no overt signs of toxicity | median serum concentrations [7]: 425 nmol/L | biological half-life [8]: 2.5 hrs

Compound: COc1ccc(CNc2nc(N(CCO)CCO)nc3c2ncn3C(C)C)cc1 [CVT-313]
neointimal formation (neointimal formation): can also inhibit neointimal formation
